Reference: US20040102362A1, “Protocol for paracentesis” (priority 2000, published 2004)
Positions of bridges follow the written chain, without caps; N, C: chain ends. Residues, ends and D or L forms follow the SMILES beside them.

Test system: cirrhotic patients with tense ascites
Details: human, in vivo
Protocol: Patient selection criteria: 24 clinically stable cirrhotic patients with tense ascites in need of therapeutic paracentesis were recruited to the study.
Treatment: Both groups received therapeutic paracentesis according to the usual protocol of the study centre. […] Plasma renin and aldosterone levels were measured as markers of blood volume. Certain other parameters were determined as secondary criteria for successful treatment.

Creatininaemia: 72 ± 8 | Natraemia: 133 ± 1 mmol/L
Compound: NCCCC[C@H](NC(=O)[C@@H]1CCCN1C(=O)[C@@H]1CSSC[C@H](NC(=O)CNC(=O)CNC(=O)CN)C(=O)N[C@@H](Cc2ccc(O)cc2)C(=O)N[C@@H](Cc2ccccc2)C(=O)N[C@@H](CCC(N)=O)C(=O)N[C@@H](CC(N)=O)C(=O)N1)C(=O)NCC(N)=O [Terlipressin] (H-GGGCYFQNCPKG-NH2; disulfide 4-9)
